Results: article PMC11860126, “X-Ray Irradiation Induces Oxidative Stress and Upregulates Intestinal Nrf2-Mrp2 Pathway, Leading to Decreased Intestinal Absorption of Valsartan” (Pharmaceutics, 2025)
Like-named read-outs stand apart in the source and are kept apart here.

Columns and labels:
[1] = set-up: method as in PMID 28438473, PMID 22204725, PMID 27749456; settings: clinical studies; cited from earlier work
[2] = In vivo pharmacokinetics of valsartan in rat plasma, with or without abdominal X-ray irradiation; set-up: species or system Sprague Dawley (SD) rats; settings: for AUC(0-inf) / Cmax / AUC(0-t) / MRT last / Tmax / half-life: male, Sprague-Dawley, rat, plasma, po, 10 mg/kg; for AUC(0-t): read-out: AUC0–24h; for MRT last: read-out: MRT0–24h; for half-life / t1/2: valsartan 10 mg/kg by gavage, Mean ± SD, n = 6
Method: Valsartan was administered by gavage (10 mg/kg) after forming a homogeneous suspension (2 mg/mL) with 1% CMC-Na by grinding and stirring. Before and after administration (0.083, 0.25, 0.5, 1, 2, 4, 6, 8, 12, and 24 h), the rats in group A (n = 6) and group B (n = 6) were anesthetized with isoflurane. Blood samples were collected by the orbital blood sampling method, and whole blood was collected by blood collection tubes coated with heparin sodium. Plasma samples were obtained by centrifugation at 16,260× g for 10 min. Quantitative analysis of LC-MS/MS results was performed using Analyst 1.6.3 program. The pharmacokinetic parameters were calculated using the WinNonlin 8.3 program. SPSS Statistic 20.0 software was used for statistical analysis. One-way ANOVA was used for comparison among multiple groups, and p < 0.05 was considered statistically significant. GraphPad Prism 8.0.2 software was used for generating figures.

[3] = VAL urinary and fecal excretion assay (metabolic cages); settings: rats, 10 mg/kg by gavage
Method: Male Sprague Dawley (SD) rats (weight 200 ± 20 g) were purchased from Beijing Vital River Laboratory Animal Co., LTD. […] The rats were fed a maintenance diet and had free access to water. All rats were adaptively fed for three days before the experiment and randomly divided into a control group (A) and irradiation group (B). There were 6 rats in group A and B in each study. […] The samples collected were processed and then stored at −80 °C until analysis.
For the VAL urinary and fecal excretion assay, six rats in each group, A and B, were randomly assigned to metabolic cages and administered valsartan (10 mg/kg) via gavage. […] The resulting supernatant was collected as the analytical samples.
The excretion of valsartan was calculated by the concentration and sample volume (or weight), and the fractional excretion of valsartan and the cumulative excretion fraction of valsartan in each time period were obtained through comparison with the corresponding dose administered to the rat.

[4] = VAL bile secretion assay in bile duct cannulated rats; format: in vivo, Sprague Dawley (SD) rats; settings: 10 mg/kg by gavage
Excerpt: For the VAL bile secretion assay, six rats in each group, A and B, underwent bile duct cannulation prior to administration. After anesthesia, the abdominal cavity of the rats was opened, followed by separation and ligation of the distal end of the common bile duct. A small opening was made at the front end of the ligation to insert a catheter, which was then ligated and fixed before suturing the abdominal cavity. Bile was collected through a catheter. The rats were maintained under anesthesia with intraperitoneal injection of normal saline and glucose to ensure stable vital signs. Following surgery, valsartan (10 mg/kg) was administered via gavage, and bile samples were collected at different time points post-administration. The collected bile samples were mixed with 50% methanol–water (ratio 1:9), centrifuged to obtain the supernatant for analysis.

[5] = Ex vivo inverted intestinal sac absorption study; format: in vitro ADME, Sprague Dawley (SD) rats; settings: for concentration of valsartan in the intestinal sac at the final time point: KRB buffer 37 °C containing 10 mM VAL, n = 6
Method: Six rats in groups A and B were anesthetized with isoflurane, followed by the opening of the abdominal cavity to separate a 10 cm segment of the jejunum. The distal end of the jejunal segment was ligated in Krebs–Ringer Solution (KRB), and the resulting intestinal sac was turned inside out from the proximal end to form an inverted intestinal sac. Subsequently, 1 mL of KRB buffer at 37 °C was added to the inverted intestinal sac, which was then equilibrated in oxygen-saturated KRB buffer (37 °C) for 5 min. The flipped intestinal sac was transferred to oxygen-saturated KRB buffer (37 °C) containing 10 mM VAL, initiating the timing process. At different time points, 50 μL of solution from the flipped intestinal sac was aspirated and supplemented with an equal volume (50 μL) of blank KRB buffer.

[6] = cited from earlier work
[7] = set-up: method as in PMID 28507434; settings: cited from earlier work
[8] = 10 mg/kg by gavage, Control group
[9] = IR-5 Gy vs control, 10 mg/kg by gavage, p < 0.05
[10] = IR-5 Gy (abdominal X-ray 24 h before)

bevacizumab
incidence of hypertension associated with treatment [1]: 26% to 55

CCCCC(=O)N(Cc1ccc(-c2ccccc2-c2nnn[nH]2)cc1)[C@H](C(=O)O)C(C)C [valsartan, Valsartan]
CL [2, 8]: 20 ± 5.87 mL/min/kg
Vd [2, 8]: 6.254 ± 2.349 L/kg
CL ([2]; 10 mg/kg by gavage, IR-5 Gy): 35.33 ± 18.5 mL/min/kg
Vd ([2]; 10 mg/kg by gavage, IR-5 Gy): 14.668 ± 9.456 L/kg
prolongation of plasma half-life (t1/2) in the IR group ([2]; IR-5 Gy vs control, 10 mg/kg by gavage): 41%
decrease of AUC0–24h in the IR group [2, 9]: 37%
decrease of Cmax in the IR group [2, 9]: 52%
AUC(0-inf) [2, 8]: 8810 ± 2010 ng·h/mL
Cmax [2, 8]: 4430 ± 1260 ng/mL
AUC(0-t) [2, 8]: 8460 ± 1840 ng·h/mL
MRT last [2, 8]: 3.84 ± 0.724 h
Tmax ([2]; 10 mg/kg by gavage, Control group, read-out: Tmax): 0.25 h
Tmax ([2]; 10 mg/kg by gavage, Figure 1, read-out: time of peak plasma concentration): ~0.25 h
AUC(0-inf) ([2]; 10 mg/kg by gavage, IR-5 Gy): 5470 ± 1790 ng·h/mL
Cmax ([2]; 10 mg/kg by gavage, IR-5 Gy): 2130 ± 878 ng/mL
AUC(0-t) ([2]; 10 mg/kg by gavage, IR-5 Gy): 5270 ± 1830 ng·h/mL
MRT last ([2]; 10 mg/kg by gavage, IR-5 Gy): 4.52 ± 1.63 h
Tmax ([2]; 10 mg/kg by gavage, IR-5 Gy, read-out: Tmax): 0.222 ± 0.068 h
half-life ([2]; Control group): 3.57 h
half-life [2, 10]: 5.03 h
t1/2 ([2]; Control group): 3.568 ± 0.411 h
t1/2 [2, 10]: 5.032 ± 2.656 h
amount excreted in the urine ([3]; Figure 2D): very small amount
cumulative excretion in feces ([3]; group not stated): 83%
cumulative fractional bile excretion ([4]; IR group, 15 h): 10.83 % of the dose
cumulative fractional bile excretion ([4]; IR group, 18 h): 11.52 % of the dose
cumulative fractional bile excretion ([4]; IR group, 24 h): 12.67 % of the dose
cumulative fractional bile excretion ([4]; control group, 15 h): 22.89 % of the dose
cumulative fractional bile excretion ([4]; control group, 18 h): 26.24 % of the dose
cumulative fractional bile excretion ([4]; control group, 24 h): 31.26 % of the dose
concentration of valsartan in the intestinal sac at the final time point ([5]; IR group): 127 ± 32.94 ng/mL
concentration of valsartan in the intestinal sac at the final time point ([5]; control group): 205.6 ± 51.72 ng/mL
reduction of valsartan concentration in the intestinal sac, IR vs control ([5]; final time point): 38%
fraction absorbed into the liver, secreted into the bile and passed into the feces along with unabsorbed valsartan [6]: > 80%
bioavailability [7]: 23%
